One compound from ChEMBL document CHEMBL2177008, “Discovery of benzodiazepine sulfonamide-based bombesin receptor subtype 3 agonists and their unusual chirality” (ACS Med Chem Lett, 2011) can be followed below.

What is called IC50 is the concentration needed to halve the response being measured. What is called EC50 is the concentration giving half of the maximal effect. By clearance is commonly meant the volume of plasma or blood freed of the substance per unit of time. Broadly, the bioavailability is the share of a dose that reaches the circulation, judged against a reference dose that is usually intravenous. As usually defined, the half-life is how long it takes for the measured level to halve.

Data set [1] in a line: Inhibition of calcium channel Diltiazem hydrochloride binding site.
Data set [2] is described as follows: Agonist activity at dog BRS3. The class given is functional, Canis lupus familiaris.
Data set [3] can be described thus: Plasma clearance in Sprague-Dawley rat at 1 mg/kg, iv. The class given is ADME, organism-based. The arrangement: dose 1 mg/kg, route intravenous.
Data set [4] can be described thus: Oral bioavailability in rhesus monkey. The class given is ADME, organism-based, Macaca mulatta. The settings on record: in vivo.
Data set [5] can be described thus: Oral bioavailability in Sprague-Dawley rat at 4 mg/kg. The class given is ADME, organism-based. The settings on record: in vivo.
In data set [6] the test system is Mus musculus. In words: Antiobesity activity in po dosed diet-induced obese wild type C57 mouse assessed as reduction in food intake administered 60 mins prior to dark cycle onset measured after 18 hrs. Format: functional, organism-based.
In data set [7] the target is T1, Bombesin receptor subtype-3 (Homo sapiens, UniProt P32247).
T1 sequence (P32247 whole entry): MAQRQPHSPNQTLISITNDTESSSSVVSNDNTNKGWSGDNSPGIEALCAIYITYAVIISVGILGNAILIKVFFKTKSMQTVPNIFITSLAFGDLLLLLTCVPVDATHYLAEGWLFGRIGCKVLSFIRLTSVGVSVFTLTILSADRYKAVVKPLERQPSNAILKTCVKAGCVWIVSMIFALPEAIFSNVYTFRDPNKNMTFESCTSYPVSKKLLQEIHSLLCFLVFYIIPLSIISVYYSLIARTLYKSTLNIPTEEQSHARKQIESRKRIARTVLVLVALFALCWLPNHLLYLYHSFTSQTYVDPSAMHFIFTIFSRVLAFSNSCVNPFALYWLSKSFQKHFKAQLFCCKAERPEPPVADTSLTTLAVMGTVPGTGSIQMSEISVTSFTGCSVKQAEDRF
The data set can be described thus: Agonist activity at human BRS3 expressed in HEK293 cells expressing aequorin measured for 10 mins by bioluminescence assay.

Data set [8] has as its system Mus musculus. The data set can be described thus: Antiobesity activity in diet-induced obese […] knock-out C57 mouse assessed as reduction in food intake at 3 and 30 mg/kg, po administered 60 mins prior to dark cycle onset measured after 18 hrs. The class given is functional, organism-based. More on the design: dose 30 mg/kg.
Data set [9] is described as follows: Half life in Sprague-Dawley rat at 1 mg/kg, iv. More on the design: dose 1 mg/kg, route intravenous. The conditions noted are these: in vivo. The class given is ADME, organism-based.
Data set [10] is described as follows: Displacement of [125I]-[D-Tyr6,beta-Ala11,Phe13,Nle14]-Bombesin(6-14) from dog BRS3. More on the design: species or system Canis lupus familiaris. For orientation: Loss of bound radioactivity is the signal in a displacement assay; it reports binding, not function.
Data set [11] is described as follows: Half life in rhesus monkey. Format: ADME, organism-based, Macaca mulatta. The conditions noted are these: in vivo.
The subject of another data set is Rattus norvegicus. In words: Dose normalized AUC in Sprague-Dawley rat at 4 mg/kg, po. The class given is ADME, organism-based. More on the design: dose 4 mg/kg, route oral. The conditions noted are these: in vivo.
Data set [12] has as its system Mus musculus. The data set can be described thus: Antiobesity activity in po dosed diet-induced obese wild type C57 mouse assessed as body weight loss administered 60 mins prior to dark cycle onset measured after 18 hrs. Format: functional, organism-based.
A further data set is filed under the species Canis lupus familiaris. In words: Agonist activity at dog BRS3 relative to [125I]-[D-Tyr6,beta-Ala11,Phe13,Nle14]-Bombesin(6-14). Format: functional.
Data set [13] addresses T2, Nuclear receptor subfamily 1 group I member 2 (Homo sapiens, UniProt O75469).
T2 sequence (O75469 whole entry): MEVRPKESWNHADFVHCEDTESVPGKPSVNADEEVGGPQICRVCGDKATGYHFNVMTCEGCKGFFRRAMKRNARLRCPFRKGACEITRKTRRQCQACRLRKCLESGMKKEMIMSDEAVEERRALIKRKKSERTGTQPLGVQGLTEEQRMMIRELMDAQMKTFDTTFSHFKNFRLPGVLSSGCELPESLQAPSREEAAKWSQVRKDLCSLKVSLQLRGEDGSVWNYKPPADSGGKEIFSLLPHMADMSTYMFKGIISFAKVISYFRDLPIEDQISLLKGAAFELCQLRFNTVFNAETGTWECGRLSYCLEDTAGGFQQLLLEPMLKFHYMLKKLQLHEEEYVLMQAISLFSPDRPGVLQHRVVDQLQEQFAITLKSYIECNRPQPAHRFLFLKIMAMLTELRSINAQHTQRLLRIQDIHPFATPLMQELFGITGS
The data set can be described thus: Activation of human PXR.

Data set [14] is described as follows: Displacement of [125I]-[D-Tyr6,beta-Ala11,Phe13,Nle14]-Bombesin(6-14) from rhesus monkey BRS3. More on the design: species or system Macaca mulatta.
The species entered for a further data set is Macaca mulatta. In words: Agonist activity at rhesus monkey BRS3 relative to [125I]-[D-Tyr6,beta-Ala11,Phe13,Nle14]-Bombesin(6-14). Format: functional.
The target of data set [15] is Voltage-gated inwardly rectifying potassium channel KCNH2 (Homo sapiens, UniProt Q12809). In words: Inhibition of human ERG.
Sequence of Voltage-gated inwardly rectifying potassium channel KCNH2 (Q12809 whole entry): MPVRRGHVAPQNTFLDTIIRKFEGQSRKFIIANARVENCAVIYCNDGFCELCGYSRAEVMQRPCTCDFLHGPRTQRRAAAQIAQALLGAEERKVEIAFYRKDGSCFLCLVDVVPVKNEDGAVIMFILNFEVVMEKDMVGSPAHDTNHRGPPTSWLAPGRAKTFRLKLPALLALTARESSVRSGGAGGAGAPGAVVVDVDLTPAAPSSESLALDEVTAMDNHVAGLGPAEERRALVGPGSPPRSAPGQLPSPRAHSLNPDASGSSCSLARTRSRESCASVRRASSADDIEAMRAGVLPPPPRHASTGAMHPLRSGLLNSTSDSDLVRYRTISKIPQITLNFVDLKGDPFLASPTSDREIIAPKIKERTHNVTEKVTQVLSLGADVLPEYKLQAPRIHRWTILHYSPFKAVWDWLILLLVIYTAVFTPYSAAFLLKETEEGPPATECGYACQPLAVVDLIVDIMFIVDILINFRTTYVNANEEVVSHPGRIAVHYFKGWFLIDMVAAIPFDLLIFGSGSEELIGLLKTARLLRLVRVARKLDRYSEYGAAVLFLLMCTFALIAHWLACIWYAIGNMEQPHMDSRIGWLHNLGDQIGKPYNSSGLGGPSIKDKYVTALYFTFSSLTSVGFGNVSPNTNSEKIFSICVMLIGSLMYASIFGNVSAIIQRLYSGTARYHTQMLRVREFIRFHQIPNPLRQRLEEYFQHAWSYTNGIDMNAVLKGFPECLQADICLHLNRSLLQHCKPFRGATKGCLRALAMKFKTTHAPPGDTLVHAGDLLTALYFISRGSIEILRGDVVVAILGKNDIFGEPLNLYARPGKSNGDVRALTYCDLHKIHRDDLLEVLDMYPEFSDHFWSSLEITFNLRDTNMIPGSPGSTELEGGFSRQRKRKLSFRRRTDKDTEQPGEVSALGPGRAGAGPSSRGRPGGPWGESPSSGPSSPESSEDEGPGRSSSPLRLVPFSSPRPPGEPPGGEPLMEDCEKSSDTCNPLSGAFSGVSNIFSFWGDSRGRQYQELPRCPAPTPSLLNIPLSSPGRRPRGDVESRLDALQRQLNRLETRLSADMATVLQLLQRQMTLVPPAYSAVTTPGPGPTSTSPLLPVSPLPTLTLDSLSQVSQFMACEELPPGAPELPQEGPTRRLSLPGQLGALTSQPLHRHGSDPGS
For data set [16], the target named is T3, Bombesin receptor subtype-3 (Mus musculus) (UniProt O54798).
T3 sequence (whole entry): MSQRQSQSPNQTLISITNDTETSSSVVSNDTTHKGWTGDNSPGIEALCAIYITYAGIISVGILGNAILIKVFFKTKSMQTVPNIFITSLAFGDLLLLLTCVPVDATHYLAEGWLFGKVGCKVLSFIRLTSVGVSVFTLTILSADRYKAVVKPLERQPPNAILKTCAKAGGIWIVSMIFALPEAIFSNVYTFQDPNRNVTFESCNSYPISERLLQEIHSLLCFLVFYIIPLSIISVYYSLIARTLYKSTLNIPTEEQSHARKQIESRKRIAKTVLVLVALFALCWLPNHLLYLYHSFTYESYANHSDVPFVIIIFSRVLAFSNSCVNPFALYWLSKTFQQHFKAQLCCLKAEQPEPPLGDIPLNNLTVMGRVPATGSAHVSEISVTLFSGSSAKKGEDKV
In words: Agonist activity at mouse BRS3 expressed in HEK293 cells expressing aequorin measured for 30 secs by bioluminescence assay relative to [125I]-[D-Tyr6,beta-Ala11,Phe13,Nle14]-Bombesin(6-14). The class given is functional, cell-based.

The next data set deals with T4, PXR (Homo sapiens, UniProt O75469).
T4 sequence (O75469 whole entry): T2 sequence (O75469 whole entry)
In words: Activation of human PXR at 10 uM relative to control. The settings on record: read-out: Activity.

A short description of data set [17]: Agonist activity at rhesus monkey BRS3. Format: functional, Macaca mulatta.

The structures appear in SMILES notation. Activity calls are given as the source filed them. The rule behind the calls is not given here.

Turning to `Cc1ccc2c(c1C)N(S(=O)(=O)c1ccc(C(C)(C)C)cc1)Cc1ccc(C(F)(F)F)nc1N2`, the IC50 in data set [1] was more than 10000 nM; in data set [10] it was 1.6 nM; in [14] it was 3 nM; in data set [15], more than 10000 nM. The EC50 in data set [2] came out at 36 nM; in data set [7] it was 15 nM; in data set [13], 678 nM; in data set [17], 70 nM. Besides, in [3], the clearance stood at 29 mL/min/kg. The results for the bioavailability in data set [4] and in data set [5] were 17% and 15%, respectively. The Activity result in the data set on Mus musculus [6] and in the data set with Mus musculus [12] was “Dose-dependent effect” each time. In the data set on Mus musculus [8], the Activity result is “inactive”. In addition, the figures for the half-life in data set [9] and in data set [11] were 1.6 h and 1.8 h, respectively. The same compound came in with an AUC/dose with Rattus norvegicus of 0.2 µM·kg·h/mg. Moreover, the max activation in the data set filed under Canis lupus familiaris amounted to 97%; in the data set listed under Macaca mulatta it was 97%; in [16] it was 98%. Besides, the activity at 10 µM at PXR was 42%.
